4 compounds from the NIST ThermoML archive (doi:10.1016/j.fluid.2005.09.010) can be followed below.

As usually defined, the mass density is mass per unit of volume. By vapor or sublimation pressure is commonly meant the equilibrium pressure above the liquid or solid.

For the series the following is noted: Liquid; for mass density: 298.15 K, 101.33 kPa.

Numbers after ± are expanded uncertainties.

For the compound `C1COCCO1` [1,4-dioxane], the mass density is recorded as 1027.85 ± 0.23 kg/m3. For the setting “375.52 K”, the “vapor or sublimation pressure” value is listed as 101.3 ± 4.1 kPa.
With `c1ccccc1` [benzene], the mass density amounted to 873.55 ± 0.22 kg/m3. Besides, the “vapor or sublimation pressure” value (353.2 K) was found to be 101.3 ± 4.1 kPa.
On to `C1CCCCC1` [cyclohexane], for which the mass density is given as 773.65 ± 0.32 kg/m3. Also, under “353.85 K”, the “vapor or sublimation pressure” value was determined as 101.3 ± 4.1 kPa.
In the case of `C1CCCC1` [cyclopentane], the mass density is reported as 739.74 ± 0.79 kg/m3. Further, where the note is “322.4 K”, the “vapor or sublimation pressure” value turned out to be 101.3 ± 4.1 kPa.
